Measurements: publication PMC11277004, “Di- and Triselenoesters—Promising Drug Candidates for the Future Therapy of Triple-Negative Breast Cancer” (International Journal of Molecular Sciences, 2024)

Tested on: MCF-10A normal breast epithelial cells
Test: Apoptosis induction, annexin V-FITC/PI flow cytometry, MCF-10A
Assay type: cell-based, human
Settings: especially at 1 µM, 24 h
Description: The FITC Annexin V Apoptosis Detection Kit II (BD Pharmingen, San Diego, CA, USA) and a flow cytometer (BD FACSCanto II, BD Biosciences Systems, San Jose, CA, USA) were used in this evaluation. The assay was performed according to the manufacturer’s instructions. Flow cytometer calibration was performed by preparing two controls—a positive and a negative control. […] The negative control was cells that were not treated with any of the proapoptotic agents. First, in the cells treated with the tested compounds as well as the controls, the medium was removed, and the cells were washed twice with cold PBS. Subsequently, the cells were resuspended in the binding buffer included in the kit at a concentration of 1 × 10^6 cells/mL. From each sample, 100 µL of cell suspension was taken and transferred to test tubes, to which 5 µL each of FITC annexin V and propidium iodide (PI) were then added. The contents of the test tubes were gently vortexed and incubated for 15 min at room temperature, protected from light. After the required time, the contents of the test tubes were made up to 500 µL with binding buffer and immediately analyzed in a flow cytometer (10,000 events measured). After the flow cytometer readout, the results were analyzed using the FACSDiva 6.0 software (BD Biosciences Systems, San Jose, CA, USA). […]

## CC(=O)C[Se]C(=O)c1cc(C(=O)[Se]CC(C)=O)cc(C(=O)[Se]CC(C)=O)c1 [EDAG-8, Se,Se,Se-tris-(2-oxopropyl) benzene-1,3,5-tris-(carboxyselenoate)]
  necrotic cells (in words): increase in the number of necrotic cells
